The text below walks through data of ChEMBL document CHEMBL4028802, “DILIrank: the largest reference drug list ranked by the risk for developing drug-induced liver injury in humans” (Drug Discov Today, 2016).

Molecules are shown by their SMILES. Positions of bridges follow the written chain, without caps; N, C: chain ends. Non-standard residues stand in square brackets, D forms with d. Residues, ends and D or L forms follow the SMILES beside them. pGlu = O=C1CC[C@@H](C(=O)O)N1

Data set [1] is filed under the species Homo sapiens. Kind of data set: Liver toxicity in human assessed as induction of drug-induced liver injury by measuring verified drug-induced liver injury concern status.
Data set [2] is filed under the species Homo sapiens. Put plainly: Liver toxicity in human assessed as induction of drug-induced liver injury by measuring severity class index.
Throughout, for DILI severity class: key of the grades not given here.

Consider `CC(C)CN(C[C@@H](O)[C@H](Cc1ccccc1)NC(=O)O[C@H]1CCOC1)S(=O)(=O)c1ccc(N)cc1`, for which the DILI_Concern entry in the data set listed under Homo sapiens [1] is given as “Ambiguous-Dili-Concern”. The DILI_severity_class in the data set filed under Homo sapiens [2] is 3.
As for `COc1cc2c(cc1OC)[C@@H](Cc1cc(OC)c(OC)c(OC)c1)[N+](C)(CCCOC(=O)CC/C=C/CCC(=O)OCCC[N+]1(C)CCc3cc(OC)c(OC)cc3[C@H]1Cc1cc(OC)c(OC)c(OC)c1)CC2` (stereo partly specified), the DILI_Concern entry in the data set filed under Homo sapiens [1] is “No-Dili-Concern”. The DILI_severity_class in the data set listed under Homo sapiens [2] is 0.
The like results for `CNS(=O)(=O)CCc1ccc2[nH]cc(C3CCN(C)CC3)c2c1` were, in that order, “Ambiguous-Dili-Concern” and 4.
On to `CNS(=O)(=O)Cc1ccc2[nH]cc(CCN(C)C)c2c1`, for which the DILI_Concern result in the data set listed under Homo sapiens [1] is “Ambiguous-Dili-Concern”. Besides, in the data set filed under Homo sapiens [2], the DILI_severity_class stood at 3.
As for `C[C@@H](O)[C@H]1C(=O)N2C(C(=O)O)=C(S[C@@H]3CN[C@H](C(=O)Nc4cccc(C(=O)O)c4)C3)[C@H](C)[C@H]12`, the DILI_Concern entry in the data set filed under Homo sapiens [1] is “Ambiguous-Dili-Concern”. The DILI_severity_class in the data set filed under Homo sapiens [2] is 3.
As for `CC(=O)[C@@]1(O)CC[C@H]2[C@@H]3C[C@H](C)C4=CC(=O)CC[C@]4(C)[C@H]3CC[C@@]21C`, the DILI_Concern entry in the data set filed under Homo sapiens [1] is “Ambiguous-Dili-Concern”. In the data set filed under Homo sapiens [2], the DILI_severity_class came out at 2.
For the molecule `CN1CCC[C@@H]1Cc1c[nH]c2ccc(CCS(=O)(=O)c3ccccc3)cc12`, the DILI_Concern entry in the data set listed under Homo sapiens [1] is reported as “Ambiguous-Dili-Concern”. Moreover, the DILI_severity_class in the data set filed under Homo sapiens [2] stood at 3.
The like results for `CCCc1nc(C)c2c(=O)[nH]c(-c3cc(S(=O)(=O)N4CCN(CC)CC4)ccc3OCC)nn12` were, in that order, “Ambiguous-Dili-Concern” and 3.
The like results for `FC(F)(F)C(F)(F)C(F)(F)F` were, in that order, “No-Dili-Concern” and 0.
`CCCC[C@](C)(O)C/C=C/[C@H]1[C@H](O)CC(=O)[C@@H]1CCCCCCC(=O)OC`: the DILI_Concern result in the data set filed under Homo sapiens [1] is given as “Ambiguous-Dili-Concern”. For the same molecule, the DILI_severity_class in the data set filed under Homo sapiens [2] worked out at 3.
The like results for `C=CC[N+]1([C@H]2C[C@H]3[C@@H]4CC[C@H]5C[C@H](O)C(N6CCOCC6)C[C@]5(C)[C@H]4CC[C@]3(C)[C@H]2OC(C)=O)CCCC1` (stereo partly specified) were, in that order, “No-Dili-Concern” and 0.
Consider `CC(=O)[C@@]1(O)CC[C@H]2[C@@H]3C=C(C)C4=CC(=O)CC[C@]4(C)[C@H]3CC[C@@]21C`, for which the DILI_Concern entry in the data set filed under Homo sapiens [1] is on record as “Ambiguous-Dili-Concern”. Besides, the DILI_severity_class in the data set filed under Homo sapiens [2] was found to be 1.
The like results for `O=S(=O)(O)O[C@@H]1[C@@H](OS(=O)(=O)O)[C@H](O[C@@H]2CO[C@@H](O)[C@H](OS(=O)(=O)O)[C@H]2OS(=O)(=O)O)OC[C@H]1O` were, in that order, “Ambiguous-Dili-Concern” and 3.
Turning to `CC1=C(CCC(=O)O)c2cc3[nH]c(cc4[nH]c(cc5nc(cc1n2)C(C)=C5C(C)OC(C)c1c(C)c2cc5nc(cc6nc(cc7[nH]c(cc1[nH]2)c(C)c7CCC(=O)O)C(CCC(=O)O)=C6C)C(C(C)O)=C5C)c(C)c4C(C)O)c(C)c3CCC(=O)O` (stereo unspecified), in the data set filed under Homo sapiens [1], the DILI_Concern result is “No-Dili-Concern”. Moreover, in the data set listed under Homo sapiens [2], the DILI_severity_class was 0.
As to `O=[N+]([O-])O[C@@H]1CO[C@H]2[C@@H]1OC[C@H]2O`, in the data set filed under Homo sapiens [1], the DILI_Concern result was “Ambiguous-Dili-Concern”. For the same molecule, the DILI_severity_class in the data set filed under Homo sapiens [2] came out at 3.
On to `C#C[C@@]1(OC(C)=O)CC[C@H]2[C@@H]3CCC4=CC(=O)CC[C@@H]4[C@H]3CC[C@@]21C`, for which, in the data set listed under Homo sapiens [1], the DILI_Concern entry was “No-Dili-Concern”. For the same molecule, in the data set listed under Homo sapiens [2], the DILI_severity_class came out at 0.
Turning to `C=C1[C@H](CO)[C@@H](O)C[C@@H]1n1cnc2c(=O)[nH]c(N)nc21.O`, the DILI_Concern entry in the data set filed under Homo sapiens [1] is on record as “Ambiguous-Dili-Concern”. Moreover, the DILI_severity_class in the data set listed under Homo sapiens [2] is reported as 7.
The like results for `CC(C)(C)NC(=O)[C@@H]1CN(Cc2cccnc2)CCN1C[C@@H](O)C[C@@H](Cc1ccccc1)C(=O)N[C@H]1c2ccccc2C[C@H]1O.O` were, in that order, “Ambiguous-Dili-Concern” and 8.
The like results for `CN1CC(=O)N2[C@H](c3ccc4c(c3)OCO4)c3[nH]c4ccccc4c3C[C@@H]2C1=O` were, in that order, “Ambiguous-Dili-Concern” and 3.
`CC[C@H](C)[C@@H]1NC(=O)[C@H](Cc2ccc(O)cc2)NC(=O)[C@@H](N)CSSC[C@@H](C(=O)N2CCC[C@H]2C(=O)N[C@@H](CC(C)C)C(=O)NCC(N)=O)NC(=O)[C@H](CC(N)=O)NC(=O)[C@H]([C@@H](C)O)NC1=O` (H-CYITNCPLG-NH2; disulfide 1-6): the DILI_Concern entry in the data set listed under Homo sapiens [1] was “No-Dili-Concern”. In the data set listed under Homo sapiens [2], the DILI_severity_class is given as 0.
Regarding `CCNC(=O)[C@@H]1CCCN1C(=O)[C@H](CCCNC(=N)N)NC(=O)[C@H](CC(C)C)NC(=O)[C@H](CC(C)C)NC(=O)[C@H](Cc1ccc(O)cc1)NC(=O)[C@H](CO)NC(=O)[C@H](Cc1c[nH]c2ccccc12)NC(=O)[C@H](Cc1c[nH]cn1)NC(=O)[C@@H]1CCC(=O)N1` ([pGlu]HWSYLLRP-NHEt), in the data set filed under Homo sapiens [1], the DILI_Concern entry is “Less-Dili-Concern”. For the same molecule, the DILI_severity_class in the data set filed under Homo sapiens [2] is reported as 3.
The like results for `CC(C)=CCN1CC[C@]2(C)c3cc(O)ccc3C[C@H]1[C@H]2C` [(+)-PENTAZOCINE] were, in that order, “No-Dili-Concern” and 0.
The like results for `O[C@@H](c1cc(C(F)(F)F)nc2c(C(F)(F)F)cccc12)[C@H]1CCCCN1` [(S,R)-MEFLOQUINE] were, in that order, “Less-Dili-Concern” and 7.
The like results for `Nc1nc(NC2CC2)c2ncn([C@H]3C=C[C@@H](CO)C3)c2n1` [ABACAVIR] were, in that order, “Most-Dili-Concern” and 8.
As to `CC(=O)NCCCS(=O)(=O)O` [ACAMPROSATE], the DILI_Concern result in the data set listed under Homo sapiens [1] is reported as “Less-Dili-Concern”. In addition, in the data set listed under Homo sapiens [2], the DILI_severity_class is 3.
The like results for `C[C@H]1O[C@H](O[C@H]2[C@H](O)[C@@H](O)[C@@H](O[C@H]3[C@H](O)[C@@H](O)C(O)O[C@@H]3CO)O[C@@H]2CO)[C@H](O)[C@@H](O)[C@@H]1N[C@H]1C=C(CO)[C@@H](O)[C@H](O)[C@H]1O` (stereo partly specified) [ACARBOSE] were, in that order, “Most-Dili-Concern” and 8.
Take `CCCC(=O)Nc1ccc(OCC(O)CNC(C)C)c(C(C)=O)c1` (stereo unspecified) [ACEBUTOLOL]: the DILI_Concern entry in the data set filed under Homo sapiens [1] is “Less-Dili-Concern”. Moreover, the DILI_severity_class in the data set filed under Homo sapiens [2] turned out to be 3.
The like results for `O=C(O)COC(=O)Cc1ccccc1Nc1c(Cl)cccc1Cl` [ACECLOFENAC] were, in that order, “Less-Dili-Concern” and 0.
Take `CC(=O)Nc1nnc(S(N)(=O)=O)s1` [ACETAZOLAMIDE]: in the data set filed under Homo sapiens [1], the DILI_Concern result was “Most-Dili-Concern”. The DILI_severity_class in the data set listed under Homo sapiens [2] turned out to be 8.
The like results for `CC(=O)NO` [ACETOHYDROXAMIC ACID] were, in that order, “Ambiguous-Dili-Concern” and 3.
The like results for `CC(=O)OCC[N+](C)(C)C.[Cl-]` [ACETYLCHOLINE CHLORIDE] were, in that order, “No-Dili-Concern” and 0.
Regarding `CC(=O)N[C@@H](CS)C(=O)O` [ACETYLCYSTEINE], the DILI_Concern entry in the data set filed under Homo sapiens [1] is listed as “No-Dili-Concern”. Moreover, the DILI_severity_class in the data set filed under Homo sapiens [2] is listed as 0.
The like results for `COc1cc(C)c(/C=C/C(C)=C/C=C/C(C)=C/C(=O)O)c(C)c1C` [ACITRETIN] were, in that order, “Most-Dili-Concern” and 5.
